Common to all, as to format: biochemical
For one test, the target named is JAK1 (Homo sapiens (Human), UniProt P23458). Briefly: JAK1 LANCE Ultra kinase assay. The following applies: for IC50: 38 uM ATP; for JAK2/JAK1: ratio of IC50 JAK2 to IC50 JAK1. As to the method: Inhibition test on activity of JAK kinase in vitro was carried out by the following methods.
JAK1 LANCE® Ultra assay, JAK2 LANCE® Ultra assay and JAK3 LANCE® Ultra assay were used to carry out the test separately, and kits of the above assays were supplied by PerkinElmer. […]
JAK1, JAK2 and JAK3 kinase, ATP and substrates were dissolved and diluted with buffers.
A test liquid was 2 nM Eu-W1024 anti-phosphotyrosine (PerkinElmer, AD0069). A stop buffer was 10 mM edetic acid (Intech, 1842C505).
2.5 μl of an 8-fold solution of the compound and 5 μl of a 4-fold solution of JAK1 or JAK2 or JAK3 kinase were added into a 384-well plate, respectively, and reacted for 10 minutes at room temperature. 2.5 μl of an 8-fold solution of ULight™-JAK-1 peptide/ATP was added and reacted for 90 minutes at room temperature. Finally, 5 μl of 4-fold edetic acid stop buffer and 5 μl of 4-fold test liquid of Eu-W1024 anti-phosphotyrosine were added and incubated for 60 minutes.
According to the formula: percentage of inhibition rate=(maximum value−transform value)/(maximum value−minimum value)×100, inhibition rate of each compound at various concentrations was calculated. The maximum value was the reference value of dimethyl sulfoxide added into the well plate, the minimum value was the blank value, and the transform value is the value obtained by the well of each compound. The IC50 values of the corresponding compounds were then obtained by fitting by using the XLFit fitting tool in excel.

The next test concerns the target JAK2 (Homo sapiens (Human), UniProt O60674). Briefly: JAK2 LANCE Ultra kinase assay. The note with it: 12 uM ATP. (In general: TR-FRET usually uses a lanthanide donor and a delayed reading to cut background.)
In the next test the target is JAK3 (Homo sapiens (Human), UniProt P52333). Briefly: JAK3 LANCE Ultra kinase assay. The following applies: 4 uM ATP.
JAK3, sequence (P52333 whole entry): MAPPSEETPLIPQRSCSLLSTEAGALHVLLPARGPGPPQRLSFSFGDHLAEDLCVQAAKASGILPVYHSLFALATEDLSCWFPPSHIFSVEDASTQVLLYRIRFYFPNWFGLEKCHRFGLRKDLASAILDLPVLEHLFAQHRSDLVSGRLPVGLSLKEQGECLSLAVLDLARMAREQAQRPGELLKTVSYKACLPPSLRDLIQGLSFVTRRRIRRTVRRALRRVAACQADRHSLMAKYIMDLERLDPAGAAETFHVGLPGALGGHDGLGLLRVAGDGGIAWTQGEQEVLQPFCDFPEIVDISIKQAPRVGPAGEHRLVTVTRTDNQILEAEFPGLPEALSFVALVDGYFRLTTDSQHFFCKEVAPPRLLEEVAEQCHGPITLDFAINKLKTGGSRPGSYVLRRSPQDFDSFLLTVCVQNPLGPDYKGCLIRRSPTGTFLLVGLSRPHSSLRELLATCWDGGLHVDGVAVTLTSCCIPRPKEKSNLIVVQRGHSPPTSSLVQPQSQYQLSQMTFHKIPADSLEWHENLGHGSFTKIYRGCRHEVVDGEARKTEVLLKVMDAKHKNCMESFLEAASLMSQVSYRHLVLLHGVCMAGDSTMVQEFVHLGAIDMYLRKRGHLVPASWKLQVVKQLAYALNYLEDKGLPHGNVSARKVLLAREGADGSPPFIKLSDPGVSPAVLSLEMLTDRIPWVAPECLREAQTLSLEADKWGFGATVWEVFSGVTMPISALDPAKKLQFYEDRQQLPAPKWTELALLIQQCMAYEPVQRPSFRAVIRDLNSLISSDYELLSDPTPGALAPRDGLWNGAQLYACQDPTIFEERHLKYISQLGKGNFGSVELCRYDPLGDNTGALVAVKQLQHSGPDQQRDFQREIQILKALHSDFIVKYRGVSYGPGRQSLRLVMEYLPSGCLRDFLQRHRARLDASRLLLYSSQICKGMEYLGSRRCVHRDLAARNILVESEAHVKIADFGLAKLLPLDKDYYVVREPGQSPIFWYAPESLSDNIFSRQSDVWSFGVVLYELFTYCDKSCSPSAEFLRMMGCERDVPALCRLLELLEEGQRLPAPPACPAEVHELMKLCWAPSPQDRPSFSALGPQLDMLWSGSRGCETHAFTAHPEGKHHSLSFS

In patent US12398141B2 (SHANGHAI SYNERGY PHARMACEUTICAL SCIENCES CO., LTD, priority 2019, dated 2025) one finds IC50 and JAK2/JAK1 data, which are given here for 20 molecules.

JAK1, sequence (P23458 whole entry): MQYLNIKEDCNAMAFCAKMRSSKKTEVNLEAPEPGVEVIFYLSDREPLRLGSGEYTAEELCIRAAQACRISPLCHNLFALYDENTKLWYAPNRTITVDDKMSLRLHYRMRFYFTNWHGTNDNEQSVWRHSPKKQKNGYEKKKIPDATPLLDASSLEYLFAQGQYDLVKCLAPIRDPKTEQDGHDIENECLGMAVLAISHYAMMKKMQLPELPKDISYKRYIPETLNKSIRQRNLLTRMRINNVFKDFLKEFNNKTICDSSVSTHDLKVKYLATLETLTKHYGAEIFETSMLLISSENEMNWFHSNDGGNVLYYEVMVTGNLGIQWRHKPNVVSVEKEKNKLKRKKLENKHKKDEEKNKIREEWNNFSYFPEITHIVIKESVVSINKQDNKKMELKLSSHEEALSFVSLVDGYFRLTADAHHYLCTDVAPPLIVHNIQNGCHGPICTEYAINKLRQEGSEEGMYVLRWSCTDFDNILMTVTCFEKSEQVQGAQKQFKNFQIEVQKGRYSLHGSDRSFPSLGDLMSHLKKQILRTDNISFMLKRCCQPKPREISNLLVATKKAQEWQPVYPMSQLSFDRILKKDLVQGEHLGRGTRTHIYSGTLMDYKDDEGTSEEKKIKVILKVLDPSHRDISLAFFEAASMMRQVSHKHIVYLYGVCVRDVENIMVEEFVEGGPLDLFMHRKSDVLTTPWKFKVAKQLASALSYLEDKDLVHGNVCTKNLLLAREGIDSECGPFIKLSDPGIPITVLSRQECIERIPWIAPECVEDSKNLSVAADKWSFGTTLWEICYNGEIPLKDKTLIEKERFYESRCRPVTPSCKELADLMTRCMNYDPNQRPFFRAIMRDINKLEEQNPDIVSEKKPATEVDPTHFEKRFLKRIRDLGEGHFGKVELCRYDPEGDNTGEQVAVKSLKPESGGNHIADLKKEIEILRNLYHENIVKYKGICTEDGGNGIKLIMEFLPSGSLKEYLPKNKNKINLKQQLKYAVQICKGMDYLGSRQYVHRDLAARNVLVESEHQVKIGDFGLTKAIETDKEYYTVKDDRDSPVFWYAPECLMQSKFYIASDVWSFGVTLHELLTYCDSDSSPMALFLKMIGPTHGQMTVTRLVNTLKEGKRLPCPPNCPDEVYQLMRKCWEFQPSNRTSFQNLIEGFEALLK
JAK2, sequence (O60674 whole entry): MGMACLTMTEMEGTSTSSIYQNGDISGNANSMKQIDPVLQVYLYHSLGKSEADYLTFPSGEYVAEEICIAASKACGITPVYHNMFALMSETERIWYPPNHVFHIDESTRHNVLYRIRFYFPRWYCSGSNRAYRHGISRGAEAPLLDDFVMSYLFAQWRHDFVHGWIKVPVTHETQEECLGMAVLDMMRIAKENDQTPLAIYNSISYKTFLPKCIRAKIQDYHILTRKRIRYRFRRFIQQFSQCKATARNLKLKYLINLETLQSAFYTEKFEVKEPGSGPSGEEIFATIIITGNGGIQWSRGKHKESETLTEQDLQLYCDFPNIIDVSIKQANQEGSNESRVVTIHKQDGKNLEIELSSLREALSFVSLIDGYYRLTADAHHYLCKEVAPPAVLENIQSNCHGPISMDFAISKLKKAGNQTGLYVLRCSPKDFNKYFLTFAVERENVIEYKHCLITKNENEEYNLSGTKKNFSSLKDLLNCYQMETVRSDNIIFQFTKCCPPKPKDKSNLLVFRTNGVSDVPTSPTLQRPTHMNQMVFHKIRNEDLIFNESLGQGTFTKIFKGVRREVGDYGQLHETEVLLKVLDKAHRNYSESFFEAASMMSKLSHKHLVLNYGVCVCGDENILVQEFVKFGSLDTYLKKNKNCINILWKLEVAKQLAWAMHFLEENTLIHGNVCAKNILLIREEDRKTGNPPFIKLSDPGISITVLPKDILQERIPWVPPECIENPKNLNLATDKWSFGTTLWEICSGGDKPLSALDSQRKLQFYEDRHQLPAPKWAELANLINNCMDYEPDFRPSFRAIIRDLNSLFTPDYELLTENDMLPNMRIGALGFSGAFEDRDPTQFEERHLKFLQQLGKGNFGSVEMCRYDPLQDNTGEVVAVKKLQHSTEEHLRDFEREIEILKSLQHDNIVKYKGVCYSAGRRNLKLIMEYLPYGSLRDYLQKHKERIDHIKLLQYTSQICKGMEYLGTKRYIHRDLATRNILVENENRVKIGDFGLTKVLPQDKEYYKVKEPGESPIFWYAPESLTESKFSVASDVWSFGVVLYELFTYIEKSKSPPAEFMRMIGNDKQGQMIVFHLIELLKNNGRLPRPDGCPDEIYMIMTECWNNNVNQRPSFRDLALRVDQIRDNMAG

The term IC50 denotes the point on the concentration scale where inhibition reaches its midpoint. Turning to `CCOc1nc(NC(=O)N2C[C@H]3C[C@H](N(C)c4c(C#N)cnc5[nH]ccc45)C[C@H]3C2)no1` [Compound H48, (3aR,5s,6aS)-5-((5-cyano-1H-pyrrolo[2,3-b]pyridin-4-yl)(methyl)amino)-N-(5-ethoxy-1,2,4-oxadiazole-3-yl)hexahydrocyclopentadiene[c]pyrrole-2(1H)-carboxamide], the IC50 against JAK1 worked out at 0.86 nM; on JAK2 it was 7.4 nM; against JAK3, 56 nM. Also, the JAK2/JAK1 at JAK1 came to 8.60.
On the same counts, the results for `CC[C@@H]1CN(S(=O)(=O)CCC(F)(F)F)C[C@@H]1Nc1c(C#N)cnc2[nH]ccc12` (relative stereo) [Compound H76, 4-(((cis)-4-ethyl-1-((3,3,3-trifluoropropyl)sulfonyl)pyrrolidin-3-yl)amino)-1H-pyrrolo[2,3-b]pyridin-5-carbonitrile] are 0.95 nM, 7.8 nM, 91 nM and 8.21.
Taken in the same sequence, the figures for `CN(c1c(C#N)cnc2[nH]ccc12)[C@H]1C[C@@H]2CN(S(=O)(=O)c3cccc(F)c3)C[C@@H]2C1` [Compound H28] were 9.5 nM, 135 nM, 220 nM and 14.21.
Turning to `CCOc1noc(NC(=O)N2C[C@H]3C[C@H](N(C)c4c(C#N)cnc5[nH]ccc45)C[C@H]3C2)n1` [Compound H47, (3aR,5s,6aS)-5-((5-cyano-1H-pyrrolo[2,3-b]pyridin-4-yl)(methyl)amino)-N-(3-ethoxy-1,2,4-oxadiazole-5-yl)hexahydrocyclopentadiene[c]pyrrole-2(1H)-carboxamide], the half-inhibitory concentration (IC50) on JAK1 stood at 2.67 nM; against JAK2 it was 20 nM; on JAK3, 130 nM. In addition, the JAK2/JAK1 at JAK1 is given as 7.49.
With `CCC1CN(C(=O)NCC(F)F)CC1Nc1c(C#N)cnc2[nH]ccc12` (centres unmarked) [Compound H87, 3-((5-cyano-1H-pyrrolo[2,3-b]pyridin-4-yl)amino)-N-(2,2-difluoroethyl)-4-ethylpyrrolidin-1-carboxamide], the IC50 against JAK1 was 5.1 nM; against JAK2 it was 45 nM; against JAK3, 73 nM. In addition, the JAK2/JAK1 on JAK1 stood at 8.82.
Taken in the same sequence, the figures for `CN(C)Cc1nsc(NC(=O)N2C[C@H]3C[C@H](Nc4c(C#N)cnc5[nH]ccc45)C[C@H]3C2)n1` [Compound H55, (3aR,5s,6aS)-5-((5-cyano-1H-pyrrole[2,3-b]pyridin-4-yl)amino)-N-(3-((dimethylamino)methyl)-1,2,4-thiadiazole-5-yl)hexahydrocyclopenta[c]pyrrole-2(1H)-carboxamide] were 2.59 nM, 17.7 nM, 253 nM and 6.83.
Take `CN(c1c(C#N)cnc2[nH]ccc12)[C@H]1CC[C@H](CS(=O)(=O)N2CCC(CO)C2)CC1` (stereo partly drawn) [Compound H69, 4-((trans-4-(((3-(hydroxymethyl)pyrrolidin-1-yl)sulfonyl)methyl)cyclohexyl)(methyl)amino)-1H-pyrrolo[2,3-b]pyridin-5-carbonitrile]: the IC50 against JAK1 came to 0.81 nM; at JAK2, 7.3 nM; at JAK3, 90 nM. Also, at JAK1, the JAK2/JAK1 came out at 9.01.
`CC[C@@H]1CN(C(=O)NC2CC2)C[C@@H]1Nc1c(C#N)cnc2[nH]ccc12` (relative stereo) [Compound H84, (cis)-3-((5-cyano-1H-pyrrolo[2,3-b]pyridin-4-yl)amino)-N-cyclopropyl-4-ethylpyrrolidin-1-carboxamide]: the figures for the concentration for half-maximal inhibition (IC50) at JAK1, against JAK2 and against JAK3 were 6.9 nM, 38 nM and 387 nM, respectively. Moreover, the JAK2/JAK1 at JAK1 is recorded as 5.51.
On the same counts, the results for `CC[C@@H]1CC(NS(=O)(=O)c2cccc(C(F)(F)F)c2)C[C@@H]1Nc1c(C#N)cnc2[nH]ccc12` (some centres unmarked) [Compound H60, N-(3-((5-cyano-1H-pyrrolo[2,3-b]pyridin-4-yl)amino)-4-ethylcyclopentyl)-3-(trifluoromethyl)benzsulfamide] are 5.6 nM, 35 nM, 153 nM and 6.25.
Regarding `CN(c1c(C#N)cnc2[nH]ccc12)[C@@H]1CC[C@H](CS(=O)(=O)N2CCC(CO)C2)C1` (some centres unmarked) [Compound H71], the IC50 was 1.13 nM on JAK1, 9.8 nM on JAK2 and 70 nM at JAK3. For the same molecule, the JAK2/JAK1 at JAK1 is on record as 8.67.
Taken in the same sequence, the figures for `CC[C@@H]1CC(NC(=O)Nc2nc(OC)ns2)C[C@@H]1Nc1c(C#N)cnc2[nH]ccc12` (stereo partly drawn) [Compound H61, 1-((3S,4R)-3-((5-cyano-1H-pyrrolo[2,3-b]pyridin-4-yl)amino)-4-ethylcyclopentyl)-3-(3-methoxy-1,2,4-thiadiazole-5-yl)urea] were 8.23 nM, 126 nM, 589 nM and 15.31.
Taken in the same sequence, the figures for `COCCOc1nsc(NC(=O)N2C[C@H]3C[C@H](Nc4c(C#N)cnc5[nH]ccc45)C[C@H]3C2)n1` [Compound H52, (3aR,5S,6aS)-5-((5-cyano-1H-pyrrolo[2,3-b]pyridin-4-yl)amino)-N-(3-(2-methoxyethoxy)-1,2,4-thiadiazole-5-yl)hexahydrocyclopenta[c]pyrrole-2(1H)-carboxamide] were 0.79 nM, 7.95 nM, 69 nM and 10.06.
On the same counts, the results for `CC[C@@H]1CN(C(=O)NCC(C)(F)F)C[C@@H]1Nc1c(C#N)cnc2[nH]ccc12` (relative stereo) [Compound H89, (cis)-3-((5-cyano-1H-pyrrolo[2,3-b]pyridin-4-yl)amino)-N-(2,2-difluoropropyl)-4-ethylpyrrolidin-1-carboxamide] are 2.9 nM, 19.7 nM, 241 nM and 6.79.
`CC[C@@H]1CN(CCC#N)C[C@@H]1Nc1c(C#N)cnc2[nH]ccc12` (relative stereo) [Compound H88, 4-(((cis)-1-(2-cyanoethyl)-4-ethylpyrrolidin-3-yl)amino)-1H-pyrrolo[2,3-b]pyridin-5-carbonitrile]: the concentration for half-maximal inhibition (IC50) against JAK1 is 0.86 nM; on JAK2, 7.9 nM; at JAK3, 112 nM. For the same molecule, the JAK2/JAK1 on JAK1 was found to be 9.19.
Taken in the same sequence, the figures for `CN1CCN(S(=O)(=O)C[C@H]2CC[C@H](N(C)c3c(C#N)cnc4[nH]ccc34)CC2)CC1` [Compound H63, Trans-4-(methyl((1r,4r)-4-(((4-methylpiperazin-1-yl)sulfonyl)methyl)cyclohexyl)amino)-1H-pyrrolo[2,3-b]pyridin-5-carbonitrile] were 1.42 nM, 7.3 nM, 64 nM and 5.14.
`COCc1nsc(NC(=O)N2C[C@H]3C[C@H](N(C)c4c(C#N)cnc5[nH]ccc45)C[C@H]3C2)n1` [Compound H56]: the IC50 at JAK1 was 1.43 nM; against JAK2 it was 10 nM; against JAK3, 82 nM. For the same molecule, the JAK2/JAK1 at JAK1 is listed as 7.01.
Taken in the same sequence, the figures for `COCCOc1nsc(NC(=O)N2C[C@H]3C[C@H](N(C)c4c(C#N)cnc5[nH]ccc45)C[C@H]3C2)n1` [Compound H51, (3aR,5S,6aS)-5-((5-cyano-1H-pyrrolo[2,3-b]pyridin-4-yl)(methyl)amino)-N-(3-(2-methoxyethoxy)-1,2,4-thiadiazole-5-yl)hexahydrocyclopenta[c]pyrrole-2(1H)-carboxamide] were 6.89 nM, 30.9 nM, 101 nM and 4.49.
On the same counts, the results for `CN(c1c(C#N)cnc2[nH]ccc12)[C@H]1C[C@@H]2CN(C(=O)Nc3nc(C4CC4)no3)C[C@@H]2C1` [Compound H32, (3aR,5s,6aS)-4-({2-[(3-cyclopropyl-1,2,4-oxadiazole-5-yl)carbamoyl]-hexahydrocyclopenta[c]pyrrole-5-yl}-methyl-amino)-1H-pyrrolo[2,3-b]pyridin-5-carbonitrile] are 5 nM, 13 nM, 27 nM and 2.60.
On the same counts, the results for `CN(c1c(C#N)cnc2[nH]ccc12)[C@H]1C[C@@H]2CN(C(=O)Nc3nc(C(C)(C)C)ns3)C[C@@H]2C1` [Compound H21, (3aR,5s,6aS)-4-({2-[(3-tert-butyl-1,2,4-thiadiazole-5-yl)carbamoyl]-hexahydrocyclopenta [c]pyrrole-5-yl}-methyl-amino)-1H-pyrrolo[2,3-b]pyridin-5-carbonitrile] are 9.4 nM, 46 nM, 223 nM and 15.40.
For `COCc1nsc(NC(=O)N2C[C@H]3C[C@H](Nc4c(C#N)cnc5[nH]ccc45)C[C@H]3C2)n1` [Compound H57], the results for the IC50 at JAK1, against JAK2 and at JAK3 were 0.89 nM, 6.4 nM and 48 nM, respectively. In addition, the JAK2/JAK1 on JAK1 came to 7.19.
